Assay results as given in US8916607B2, “Use of piperphentonamine or salts thereof in manufacture of medicaments for treating brain diseases” (Guangzhou Municipal Zhongwei Biotechnology Limited Company, priority 2009, dated 2014).
Marks after values point to notes of the source that are not given here.

How the values were obtained:
[1] = tested on: infective brain edema of rats (pertussis bacteria liquid); assay: infective cerebral edema: IL-1β, TNF-α (ELISA) and NO (Griess) in cerebral tissue; assay type: in vivo, SD rats; conditions: rat cerebral tissue, 4 h
Protocol: Determine the content of IL-1β, TNF-α and NO by using ELISA and Griess method.
Model preparation was same as that of example 4. Piperphentonamine acetate group was intraperitoneally injected with 0.5 mg/kg daily for 2 days 48 h before the injection of pertussis bacterial liquid. Rats in each group were decollated after being injected with bacterial liquid or saline 4 h. ELISA method and Griess method were used to measure the content of IL-1β, TNF-α and NO in brain homogenate of infectious brain edema model of rats.

[2] = tested on: cerebral hemorrhage in rats induced by collagenase; assay: ICH model induced by collagenase: NE in brain tissue by ELISA; assay type: in vivo, Wistar rats
Excerpt: Rats in each group were anesthetized by chloral hydrate, decollated rapidly and the brains were taken out. The brain tissue around the hole was cut and procured, weighed precisely, and made into a 10% tissue homogenate using a glass homogenizer in an ice bath environment with physiological saline as homogenized medium, the supernatant of which was taken to be determined the NE activity using ELISA method.

[3] = tested on: cerebral hemorrhage in rats induced by collagenase; assay: ICH model induced by collagenase: histopathological observation; assay type: in vivo, Wistar rats; conditions: large dose (2 mg/kg) pretreatment
Protocol: Influence of piperphentonamine hydrochloride on pathological morphology of cerebral hemorrhage in rats was observed. Each group animals were selected randomly, anesthetized deeply by chloral hydrate at predetermined time point, decollated and the brain were taken out rapidly, then, the brain tissue slices with hematoma (about 5 mm) were cut, and put into 10% formaldehyde solution immediately, fixed for 24 h followed by dehydration by graded ethanol, transparentizing by xylene, immersing in paraffin, embedding, slicing (5 μm), HE staining and sealing. The pathological changes area and the pathological change of the adjacent brain tissue were observed by optical microscope.

[4] = tested on: cultured cerebral neurons; assay: NMDA induces neuron injury in primary cultured neurons; assay type: cell-based, rat; conditions: 12 h; for mortality: NMDA 50 mmol/L
[5] = tested on: learning and memory dysfunction caused by cerebral ischemia reperfusion; assay: platform-diving experiment in dementia model of mice caused by ischemia reperfusion; assay type: in vivo, Kunming mice; conditions: for memory achievement Error times / Learning achievement Error times: in 5 min; for memory achievement Error times: test-retest period; for Learning achievement Error times: training period
Protocol: The animals were randomly divided into five groups: sham operation group, model group, piperphentonamine hydrochloride 1 mg/kg group, 2 mg/kg group, 4 mg/kg group. There were 10 mice in each group.
After the mice were fasted for 16 hours, we established the dementia model of mice caused by ischemia reperfusion. The preparatory steps were proceeded as follows: anesthetizing mouse by sodium pentobarbital (60 mg/kg, ip), supinely immobilizing on a board, incising on the midmost of neck, isolating bilateral common carotid artery, and threading with zero-size silk thread. Afterwards, operation steps were proceeded as follows: blocking the blood flow of bilateral common carotid artery for 10 min, then resuming the blood flow for 10 min, repeating the blocking/resuming steps for 3 times, and suturing the skin. The mice were put in normal feeding conditions. Bilateral common carotid artery is only isolated for sham operation group.
After ischemia reperfusion for 10 min, the drugs are injected on tail vein, after ischemia reperfusion for 24 h, administering for the second time. Carrying on the platform-diving experiment after administering for half an hour. The mice under test are put into the platform-diving instrument, adapting the environment for 3 min, and then the bottom plate being electrified, observing the time when the mouse jump onto the high platform (reaction time) and the times which the mouse jump down from the high platform and are shocked by electricity in 5 min (the number of errors in the training period). After 24 h, administering again, then carry on the second platform-diving experiment to measure the function of obtaining memory. Putting the mouse on the platform of experimental instrument, electrifying the bottom plate at the same time, recording the time when the mouse jump down from the high platform (latency) and the times which shock by electricity in 5 min (the times of error in test-retest period).

[6] = tested on: cerebral ischemia/reperfusion injury in mice; assay: focal cerebral ischemia reperfusion injury model in mice (suture method), TTC infarction area; assay type: in vivo; conditions: ischemia 2 h, reperfusion 24 h
Protocol: Focal cerebral ischemia reperfusion injury model is made in mice by using suture method, being ischemia for 2 h, then reperfusing for 24 h, and it proves that piperphentonamine hydrochloride has protective effect on ischemia-reperfusion cerebral injury.
Mouse is anesthetized by injecting 10% chloral hydrate (350 mg/kg) in intraperitoneal, being intravenously administered 1 mg/kg, 5 mg/kg piperphentonamine hydrochloride or 20 u/kg coenzyme A, (COA), making the cerebral artery ischemia like as the method of example 6. Pulling out nylon thread from the internal carotid artery after the operation in 2 hours, until the end of the nylon thread is at bifurcation of the common carotid artery. Reperfusing for 24 hours. Except for not inserting a thread, the rest of steps for the false operation group are same as the above-mentioned. After reperfusion for 24 h, decapitating and taking the brain of survived mice, rapidly putting in −20° C. freezer for 5 min, then removing, quickly cutting coronal slices of 2.0 mm thickness from forward to back on the operating table, putting the slices in phosphate buffer solution with 1% TTC immediately, incubating for 30 min in avoiding light at room temperature. Flip brain slices to make them touch staining solution uniformly every 10 minute, and scanning and observing the dyeing results.
The local cerebral ischemia model of mice was established by using thread bolt method, to validate that piperphentonamine acetate has protective effect on experimental cerebral ischemia animal.

In the case of `CN(CCC(=O)/C=C/c1ccc(O)cc1)CCc1ccc2c(c1)OCO2.Cl` [piperphentonamine hydrochloride, Piperphentonamine hydrochloride], the IL-1β [1] is reported as 318.4 ± 43.8^2)3) pg/g, the NO [1] is reported as 86.1 ± 5.9^2)3) nmol/g and the TNF-α [1] is reported as 499.7 ± 134.9^2)3) pg/g. The NE ([2]; 2 mg/kg, ICH rat brain tissue homogenate) was 1.61 ± 0.044^a ng/ml, the “brain tissue NE activity” value ([2]; high and low dose group (2, 0.5 mg/kg)) was “could decrease the brain tissue NE activity significantly” and the “pathological morphology of cerebral hemorrhage” value [3] was “tissue edema and inflammatory cell infiltration after cerebral hemorrhage were reduce obviously”. It also gave a mortality ([4]; drug 10 mmol/L, hydrochloride) of 38%, a mortality ([4]; drug 10 mmol/L, listed as JBTA2, hydrochloride) of 38% and a mortality ([4]; drug 100 mmol/L, hydrochloride) of 24%. For the same molecule, the mortality ([4]; drug 100 mmol/L, listed as JBTA2, hydrochloride) was 24%, the “morphological change of culture neuron” value ([4]; drug 10) was “the degree of cell injury reduces significantly” and the “Learning achievement Reaction time s” value ([5]; 1 mg/kg tail vein) was 16.53 ± 11.75 s. The “memory achievement latency s” value ([5]; 1 mg/kg tail vein) was 249.84 ± 133.55 s, the “memory achievement Error times” value ([5]; 1 mg/kg tail vein) was 1.31 ± 0.58 and the “Learning achievement Error times” value ([5]; 1 mg/kg tail vein) was 5.37 ± 3.63. For the same molecule, the “Learning achievement Reaction time s” value ([5]; 2 mg/kg tail vein) was 13.34 ± 8.85 s, the “memory achievement latency s” value ([5]; 2 mg/kg tail vein) was 308.13 ± 97.73 s and the “memory achievement Error times” value ([5]; 2 mg/kg tail vein) was 0.73 ± 0.58. For the same molecule, the “Learning achievement Error times” value ([5]; 2 mg/kg tail vein) was 5.08 ± 3.34, the “Learning achievement Reaction time s” value ([5]; 4 mg/kg tail vein) was 7.11 ± 4.06 s and the “memory achievement latency s” value ([5]; 4 mg/kg tail vein) was 352.79 ± 141.5 s. For the same molecule, the “memory achievement Error times” value ([5]; 4 mg/kg tail vein) was 0.58 ± 1.45, the “Learning achievement Error times” value ([5]; 4 mg/kg tail vein) was 4.5 ± 3.05 and the “The percentage of infarction area occupied the entire coronal plane (%)” value ([6]; 1 mg/kg iv) was 19.78 ± 2.61 %. The “The percentage of infarction area occupied the entire coronal plane (%)” value ([6]; 5 mg/kg iv) was 16.55 ± 2.32 %.
